{"source": "paper PMC10780823", "about": "“Innovative Approach to Enhance Bioavailability of Birch Bark Extracts: Novel Method of Oleogel Development Contrasted with Other Dispersed Systems” (Plants, 2024)", "key": {"[1]": {"assay": "Oxidative stability (Oxipres, high-pressure oxygen bomb method)", "type": "physicochemical", "conditions": "antioxidants 0.33%", "procedure": "Due to their high oil content, oleogels are characterized by instability in an oxygen environment, so at the beginning of the study, an oxidative stability test of the oleogel was performed, which was compared with a pure sunflower oil sample and an oil sample containing TBHQ (tertiary butylhydroquinone).\nTo determine the oxidative stability, the oleogel was compared with a sunflower oil alone (blank sample) and a sample of sunflower oil with the addition of TBHQ (tertiary butylhydroquinone), which is widely used as an effective food antioxidant. TBHQ was added to the oil at a concentration equivalent to the concentration of polyphenols in the oleogel—0.33% (determined in previous studies).\nAn Oxipres ML 3,047,312 machine (Mikrolab Aarhus, Aarhus, Denmark) was used to determine oxidative stability. This equipment is a modification of the high-pressure oxygen bomb method (by standard ASTM D942), the principle of which is to oxidize substrates with oxygen. Enough sample was weighed into glass containers to contain 5 g of substrate. […] The protection factor (PF) is calculated according to the formula PF = […], where IPx is the induction period for the sample with antioxidant additives, hours; IPk is the induction period for the sample without antioxidant additives or the “blank sample”, hours. Using that formula, the oxidative stability was determined and compared among samples."}, "[2]": {"set-up": "method as in PMID 27155877", "conditions": "endotracheal route; nanoparticles 25.2 mg/kg; cited from earlier work"}, "[3]": {"assay": "Pozharitskaya study: betulin in blood plasma after endotracheal administration", "type": "in vivo, rat", "conditions": "cross-study comparison"}, "[4]": {"assay": "Content of BBE compounds in rat tissues after repeated peroral oleogel administration", "conditions": "for Content in heart, liver, kidney, brain tissues: oleogel half dose daily 7 days, 24 h after last administration, level of quantification 50 ng/g"}, "[5]": {"conditions": "male, Wistar, rat, in vivo"}, "[6]": {"conditions": "oral in olive oil, 200 mg/kg, mice; cited from earlier work"}, "[7]": {"assay": "Betulin, lupeol and betulinic acid in rat blood plasma after peroral administration of BBE dispersed systems (LC/MS/MS)"}, "[8]": {"conditions": "oleogel half dose daily for 7 days"}}, "note": "Entries after “also recorded” stand apart in the source; their conditions may differ."}
{"smiles": "CC(C)(C)c1cc(O)ccc1O", "note": "[TBHQ in oil, tertiary butylhydroquinone]", "values": [{"measurement": "Induction period", "setting": "[1]; oxygen 8–8.5 bar, 120 °C", "result": 3.5, "unit": "h"}, {"measurement": "Protection factor", "setting": "[1]; vs blank sunflower oil", "result": 2.7}]}
{"smiles": "C=C(C)[C@@H]1CC[C@]2(CO)CC[C@]3(C)[C@H](CC[C@@H]4[C@@]5(C)CC[C@H](O)C(C)(C)[C@@H]5CC[C@]43C)[C@@H]12", "note": "[betulin powder]", "values": [{"measurement": "Betulin in blood plasma", "setting": "[2]", "result": 6.9, "unit": "µg/mL"}, {"measurement": "Plasma level, times higher than aqueous suspension of BBE powder in this study", "setting": "[3]", "result": "~1000", "unit": "times"}]}
{"smiles": "C=C(C)[C@@H]1CC[C@]2(CO)CC[C@]3(C)[C@H](CC[C@@H]4[C@@]5(C)CC[C@H](O)C(C)(C)[C@@H]5CC[C@]43C)[C@@H]12", "note": "[betulin]", "values": [{"measurement": "Content in heart, liver, kidney, brain tissues", "setting": "[4]", "result": "not detected; also recorded: not found"}]}
{"smiles": "C=C(C)[C@@H]1CC[C@]2(C(=O)O)CC[C@]3(C)[C@H](CC[C@@H]4[C@@]5(C)CC[C@H](O)C(C)(C)[C@@H]5CC[C@]43C)[C@@H]12", "note": "[betulinic acid]", "values": [{"measurement": "Content in heart, liver, kidney, brain tissues", "setting": "[4]", "result": "not detected; also recorded: not found"}]}
{"smiles": "C=C(C)[C@@H]1CC[C@]2(C)CC[C@]3(C)[C@H](CC[C@@H]4[C@@]5(C)CC[C@H](O)C(C)(C)[C@@H]5CC[C@]43C)[C@@H]12", "note": "[lupeol]", "values": [{"measurement": "Lupeol content in brain", "setting": "[4]; [8]", "result": "not found"}, {"measurement": "Lupeol content in kidneys", "setting": "[4]; [8]", "result": "about 250 ng/g tissue"}, {"measurement": "Lupeol content in liver", "setting": "[4]; [8]", "result": "about 21 ng/g tissue"}, {"measurement": "Lupeol content in heart", "setting": "[5]", "result": "about 250 ng/g tissue"}, {"measurement": "Lupeol concentration in blood plasma", "setting": "[6]", "result": 6, "unit": "ng/µL"}, {"measurement": "Lupeol bioavailability from the oleogel, times better than betulin bioavailability", "setting": "[7]; considering the lower dose of lupeol", "result": 20, "unit": "times"}, {"measurement": "Lupeol exposure, times higher than betulin exposure", "setting": "[7]; peroral BBE systems", "result": "about 3 times"}]}
